Where two headings read alike, the source gives them in different places.
Legend:
S. aureus RN450 = experiment: In Vitro Anti-Bacterial Activity Assay (MIC), gram positive; assay type: cell-based; details: for MIC: Staphylococcus aureus, RN450, 18 h
E. coli mL308 225 = experiment: In Vitro Anti-Bacterial Activity Assay (MIC), gram negative; assay type: cell-based; details: for MIC: Escherichia coli, ML308225, 18 h
[1] = gram positive bacteria, read-out: Antibiotic Activity Gram + (MIC)
[2] = gram negative bacteria, read-out: Antibiotic Activity Gram − (MIC)
[3] = MIC class, Table 3, read-out: Antibiotic Activity Gram +
[4] = MIC class, Table 3, read-out: Antibiotic Activity Gram −

Row | Structure (SMILES) | MIC (S. aureus RN450; [1]) | MIC (E. coli mL308 225; [2]) | MIC (S. aureus RN450; [3]) | MIC (E. coli mL308 225; [4]) | other results
1 | CC(CF)N(C)Cc1cc(N(C)C)c2c(c1O)C(=O)C1=C(O)[C@]3(O)C(=O)C(C(N)=O)=C(O)[C@@H](N(C)C)[C@@H]3C[C@@H]1C2 (stereo partly shown) |  |  |  |  | MIC (S. aureus RN450; read-out: Antibiotic Activity Gram + (MIC)): < 4 µg/mL; MIC (E. coli mL308 225; read-out: Antibiotic Activity Gram − (MIC)): > 4 µg/mL
2 | CN(C)c1cc(CNCC(C)(C)C)c(O)c2c1C[C@H]1C[C@H]3[C@H](N(C)C)C(O)=C(C(N)=O)C(=O)[C@@]3(O)C(O)=C1C2=O [drawing 3433] | < 4 µg/mL | > 4 µg/mL |  |  | 
3 | CN(C)Cc1cc(-c2ccoc2)c2c(c1O)C(=O)C1=C(O)[C@]3(O)C(=O)C(C(N)=O)=C(O)[C@@H](N(C)C)[C@@H]3C[C@@H]1C2 | < 4 µg/mL | > 4 µg/mL |  |  | 
4 | CN(C)[C@@H]1C(O)=C(C(N)=O)C(=O)[C@@]2(O)C(O)=C3C(=O)c4c(O)c(S(=O)(=O)O)cc(Cl)c4C=C3C[C@@H]12 | > 4 µg/mL | > 4 µg/mL |  |  | 
5 | Cc1cc(CNCc2cc(N(C)C)c3c(c2O)C(=O)C2=C(O)[C@]4(O)C(=O)C(C(N)=O)=C(O)[C@@H](N(C)C)[C@@H]4C[C@@H]2C3)c(C(F)(F)F)o1 | < 4 µg/mL | < 4 µg/mL |  |  | 
6 | CN(C)Cc1ccc(-c2cc(N(C)C)c3c(c2O)C(=O)C2=C(O)[C@]4(O)C(=O)C(C(N)=O)=C(O)[C@@H](N(C)C)[C@@H]4C[C@@H]2C3)o1 [LI] |  |  | < 4 µg/mL | > 4 µg/mL | 
7 | CN(C)c1ccc(-c2cc(C#CC3=CCCCC3)c(O)c3c2C[C@H]2C[C@H]4[C@H](N(C)C)C(O)=C(C(N)=O)C(=O)[C@@]4(O)C(O)=C2C3=O)cc1 [HR] |  |  | > 4 µg/mL | > 4 µg/mL | 
8 | CCN(Cc1ccccc1)Cc1cc(N(C)C)c2c(c1O)C(=O)C1=C(O)[C@]3(O)C(=O)C(C(N)=O)=C(O)[C@@H](N(C)C)[C@@H]3C[C@@H]1C2 | < 4 µg/mL | < 4 µg/mL |  |  | 
9 | CCCCCc1cc(N(C)C)c2c(c1O)C(=O)C1=C(O)[C@]3(O)C(=O)C(C(N)=O)=C(O)[C@@H](N(C)C)[C@@H]3C[C@@H]1C2 [DX] |  |  | < 4 µg/mL | > 4 µg/mL | 
10 | CCOC(=O)c1csc(NCc2cc(N(C)C)c3c(c2O)C(=O)C2=C(O)[C@]4(O)C(=O)C(C(N)=O)=C(O)C(N(C)C)[C@@H]4C[C@@H]2C3)n1 (stereo partly shown) [MT] |  |  | > 4 µg/mL | > 4 µg/mL | 
11 | CN(C)c1cc(NC(=O)CNC(C)(C)C)c(O)c2c1C[C@H]1C[C@H]3[C@H](N(C)C)C(O)=C(C(N)=O)C(=O)[C@@]3(O)C(O)=C1C2=O [DZ] |  |  | < 4 µg/mL | < 4 µg/mL | 
12 | CN(C)[C@@H]1C(O)=C(C(N)=O)C(=O)[C@@]2(O)C(O)=C3C(=O)c4c(O)ccc(C#Cc5ccc(NS(C)(=O)=O)cc5)c4C[C@H]3C[C@@H]12 [BU] |  |  | < 4 µg/mL | > 4 µg/mL | 
13 | CN(C)[C@@H]1C(O)=C(C(N)=O)C(=O)[C@@]2(O)C(O)=C3C(=O)c4c(O)ccc(NC5CCN(Cc6ccccc6)CC5)c4C[C@H]3C[C@@H]12 [JN] |  |  | < 4 µg/mL | < 4 µg/mL | 
14 | CN(C)c1cc(NC(=O)Nc2ccc(F)c([N+](=O)[O-])c2)c(O)c2c1C[C@H]1C[C@H]3[C@H](N(C)C)C(O)=C(C(N)=O)C(=O)[C@@]3(O)C(O)=C1C2=O [DB] |  |  | < 4 µg/mL | > 4 µg/mL | 
15 | C[C@H]1c2ccc(CNCCC(F)(F)F)c(O)c2C(=O)C2=C(O)[C@]3(O)C(=O)C(C(N)=O)=C(O)[C@@H](N(C)C)[C@@H]3[C@@H](O)[C@@H]21 | < 4 µg/mL | < 4 µg/mL |  |  | 
16 | C[C@H]1c2ccc(N3CCOCC3)c(O)c2C(=O)C2=C(O)[C@]3(O)C(=O)C(C(N)=O)=C(O)[C@@H](N(C)C)[C@@H]3[C@@H](O)[C@@H]21 | > 4 µg/mL | > 4 µg/mL |  |  | 
17 | CN(C)[C@@H]1C(O)=C(C(N)=O)C(=O)[C@@]2(O)C(O)=C3C(=O)c4c(O)c(N)cc(-c5ccoc5)c4C[C@H]3C[C@@H]12 [KT] |  |  | < 4 µg/mL | < 4 µg/mL | 
18 | CC(C)c1cccc(-c2ccc(O)c3c2C[C@H]2C[C@H]4[C@H](N(C)C)C(O)=C(C(N)=O)C(=O)[C@@]4(O)C(O)=C2C3=O)c1 | < 4 µg/mL | < 4 µg/mL |  |  | 
19 | CN(C)[C@@H]1C(O)=C(C(N)=O)C(=O)[C@@]2(O)C(O)=C3C(=O)c4c(O)c(C(C)(C)C)cc(CNC(=O)c5cccnc5)c4C[C@H]3C[C@@H]12 [CE] |  |  | > 4 µg/mL | > 4 µg/mL | 

Row | Structure (SMILES) | MIC (S. aureus RN450; [1]) | MIC (E. coli mL308 225; [2]) | MIC (S. aureus RN450; [3]) | MIC (E. coli mL308 225; [4]) | other results
20 | CN(C)c1ccc(O)c2c1C[C@H]1C[C@H]3[C@H](N(C)C)C(O)=C(C(=O)NCNC(=O)CCl)C(=O)[C@@]3(O)C(O)=C1C2=O [DN] |  |  | < 4 µg/mL | > 4 µg/mL | 
21 | CN(C)c1cc(CCCNS(C)(=O)=O)c(O)c2c1C[C@H]1C[C@H]3[C@H](N(C)C)C(O)=C(C(N)=O)C(=O)[C@@]3(O)C(O)=C1C2=O | > 4 µg/mL | > 4 µg/mL |  |  | 
22 | CC(=O)NCc1ccc(O)c2c1C[C@H]1C[C@H]3[C@H](N(C)C)C(O)=C(C(N)=O)C(=O)[C@@]3(O)C(O)=C1C2=O | < 4 µg/mL | > 4 µg/mL |  |  | 
23 | CN(C)c1cc(CNCC(C)(C)C)c(O)c2c1C[C@H]1C[C@H]3[C@H](N(C)C)C(O)=C(C(N)=O)C(=O)[C@@]3(O)C(O)=C1C2=O [FD] |  |  | < 4 µg/mL | < 4 µg/mL | 
24 | CN(C)c1cc(CNCc2ccc(F)cc2)c(O)c2c1C[C@H]1C[C@H]3[C@H](N(C)C)C(O)=C(C(N)=O)C(=O)[C@@]3(O)C(O)=C1C2=O | < 4 µg/mL | < 4 µg/mL |  |  | 
25 | CC(C)COC(=O)NCc1ccc(O)c2c1C[C@H]1C[C@H]3[C@H](N(C)C)C(O)=C(C(N)=O)C(=O)[C@@]3(O)C(O)=C1C2=O [FT] |  |  | < 4 µg/mL | > 4 µg/mL | 
26 | Cc1cnc(N)n1Cc1cc(N(C)C)c2c(c1O)C(=O)C1=C(O)[C@]3(O)C(=O)C(C(N)=O)=C(O)[C@@H](N(C)C)[C@@H]3C[C@@H]1C2 [drawing 3712] |  |  |  |  | Antibiotic Activity Gram + (MIC) (S. aureus RN450; gram positive bacteria): * (compounds with an MIC of greater than 4 μg/ml are indicated with *); Antibiotic Activity Gram − (MIC) (E. coli mL308 225; gram negative bacteria): * (compounds with an MIC of greater than 4 μg/ml are indicated with *)
27 | CCCCCC(=O)c1ccc(O)c2c1C[C@H]1C[C@H]3[C@H](N(C)C)C(O)=C(C(N)=O)C(=O)[C@@]3(O)C(O)=C1C2=O | < 4 µg/mL | < 4 µg/mL |  |  | 
28 | Cc1noc(C)c1-c1ccc(O)c2c1C[C@H]1C[C@H]3[C@H](N(C)C)C(O)=C(C(N)=O)C(=O)[C@@]3(O)C(O)=C1C2=O | < 4 µg/mL | < 4 µg/mL |  |  | 
29 | CCCCOC(=O)c1ccc(O)c2c1C[C@H]1C[C@H]3[C@H](N(C)C)C(O)=C(C(N)=O)C(=O)[C@@]3(O)C(O)=C1C2=O | < 4 µg/mL | < 4 µg/mL |  |  | 
30 | C#CCOC(=O)Nc1ccc2c(c1O)C(=O)C1=C(O)[C@]3(O)C(=O)C(C(N)=O)=C(O)[C@@H](N(C)C)[C@@H]3C[C@@H]1C2 | < 4 µg/mL | < 4 µg/mL |  |  | 
31 | Cc1ccc(OC(=O)Nc2ccc(O)c3c2C[C@H]2C[C@H]4[C@H](N(C)C)C(O)=C(C(N)=O)C(=O)[C@@]4(O)C(O)=C2C3=O)cc1 [AV] |  |  |  |  | MIC (S. aureus RN450; read-out: Antibiotic Activity Gram +): < 4 µg/mL; MIC (E. coli mL308 225; read-out: Antibiotic Activity Gram −): < 4 µg/mL
32 | CN(C)[C@@H]1C(O)=C(C(N)=O)C(=O)[C@@]2(O)C(O)=C3C(=O)c4c(O)ccc(-c5ccc(O)nc5)c4C[C@H]3C[C@@H]12 | < 4 µg/mL | < 4 µg/mL |  |  | 
33 | CN(C)[C@@H]1C(O)=C(C(N)=O)C(=O)[C@@]2(O)C(O)=C3C(=O)c4c(O)ccc(-c5ccc6c(c5)OCO6)c4C[C@H]3C[C@@H]12 [drawing 3286] |  |  |  |  | MIC (S. aureus RN450; MIC class, Table 3 (Continued), read-out: Gram+ activity): < 4 µg/mL; MIC (E. coli mL308 225; MIC class, Table 3 (Continued), read-out: Gram− activity): < 4 µg/mL
34 | CN(C)c1cc(CNCC2CCOCC2)c(O)c2c1C[C@H]1C[C@H]3[C@H](N(C)C)C(O)=C(C(N)=O)C(=O)[C@@]3(O)C(O)=C1C2=O | < 4 µg/mL | > 4 µg/mL |  |  | 
35 | CCOC(=O)CNC(=O)c1cccc(-c2ccc(O)c3c2C[C@H]2C[C@H]4[C@H](N(C)C)C(O)=C(C(N)=O)C(=O)[C@@]4(O)C(O)=C2C3=O)c1 [GS] |  |  | < 4 µg/mL | > 4 µg/mL | 
36 | NC(=O)C1=C(O)C[C@@H]2C[C@@H]3Cc4cccc(O)c4C(=O)C3=C(O)[C@]2(O)C1=O | < 4 µg/mL | < 4 µg/mL |  |  | 
37 | C[C@H]1c2ccc(NC3CCN(Cc4ccccc4)CC3)c(O)c2C(=O)C2=C(O)[C@]3(O)C(=O)C(C(N)=O)=C(O)[C@@H](N(C)C)[C@@H]3[C@@H](O)[C@@H]21 [JK] |  |  | < 4 µg/mL | < 4 µg/mL | 
38 | CN(C)[C@@H]1C(O)=C(C(N)=O)C(=O)[C@@]2(O)C(O)=C3C(=O)c4c(ccc(NC5CCNCC5)c4O)C[C@H]3C[C@@H]12 [LE] |  |  | > 4 µg/mL | > 4 µg/mL | 

— patent US20150141381A1, “TETRACYCLINE COMPOUNDS HAVING TARGET THERAPEUTIC ACTIVITIES” (Paratek Pharmaceuticals, Inc., priority 2001, published 2015)
